Experimental data taken from US20240150396A1 (The Texas A&M University System, priority 2021, published 2024).
Several values for one entry are separate records, joined by “and”; a condition that tells them apart may be missing. Equal values may be shown once. Read-outs that look alike come from different tables or passages of the source.

What was measured:
[1] = tested on: T. b. brucei bloodstream forms; assay: Growth of axenic cultures of T. b. brucei bloodstream forms (BSFs); details: read-out: EC50 T. b. brucei BSF; axenic culture
Experimental: Selected cruzain inhibitors were evaluated in axenic cell cultures of T. b. brucei and T. cruzi. Procyclic trypomastigotes of T. b. brucei (ATCC PRA-381) were grown in the SDM-79 medium at 26° C., and bloodstream forms (ATCC PRA-383) were grown at 37° C. in the HMI-9 medium at 5% C02. […] Both forms of T. b. brucei and T. cruzi were grown in media containing 10% fetal bovine serum (FBS) and penicillin/streptomycin (50 U mL^−1). […] Control samples contained equal amounts of DMSO. T. b. brucei and T. cruzi (5 mL in flask cultures) were seeded at ˜3×10^6 cells and diluted daily, maintaining a mid-log growth phase for up to 120 h. […] After each cell dilution, fresh compound or an equal volume of DMSO (control samples) was supplemented into the cultures, while maintaining a constant concentration of each inhibitor. Cell counts were scored using a Z2 Coulter Counter.
In vitro Cell Assays. Bloodstream form T. b. brucei strain SM427 was grown in HM1-9 medium that included fetal bovine serum (10%) and antibiotics (100 U/mL penicillin-streptomycin, Gibco™). Inhibitors dissolved in 100% (v/v) DMSO stock solutions were added at final concentrations of 0.5-20 μM (final concentrations of DMSO were <1% (v/v)). T. b. brucei were seeded at ˜1×10^6 cells at 37° C., and diluted daily to maintain a log phase of growth for up to 96 h. […] After each dilution, the cell cultures were supplemented with inhibitor or DMSO (control) to keep concentrations constant. Cell density was determined and graphed as previously reported.^36 Trypanosomes were quantified using a Z2 Coulter Counter, and values of EC50 were determined after 3-4 days of treatment by the interpolation method of Huber and Koella.^37

[2] = tested on: C2C12 mouse cardiomyoblast cell line; assay: Host cell cytotoxicity in the T. cruzi infection model; format: cell-based; details: host cardiomyoblasts; read-out: C2C12 Cytotoxicity CC50
How it was run: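 C2C12 murine cardiomyoblasts infected with T. cruzi were incubated with compound 48 h at 37 °C, fixed in 2% PFA and stained with 5 μg/ml DAPI. Automated microscopy imaging quantified host cells and parasites separately; host cytotoxicity derived as CC50.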

[3] = tested on: T. b. brucei procyclic forms; assay: Growth of axenic cultures of T. b. brucei procyclic forms (PCFs); format: cell-based, Trypanosoma brucei brucei; details: axenic culture; read-out: EC50 T. b. brucei PCF
[4] = tested on: T. cruzi epimastigotes (strain Y); assay: Growth of axenic cultures of T. cruzi epimastigotes; details: epimastigotes
Experimental: Selected cruzain inhibitors in axenic cell cultures of Trypanosoma brucei brucei (procyclic trypomastigotes; ATCC PRA-381) and Trypanosoma cruzi (epimastigote forms; strain Y, ATCC 50832GFP) were tested. T. b. brucei is grown in SDM-79 medium, and T. cruzi is grown in ATCC medium (1029 LIT medium). Both media included fetal calf serum (10%) and penicillin/streptomycin (50 U/mL). […] T. brucei and T. cruzi (5 mL in flask cultures) at 26° C. were seeded at ˜3×10^6 cells, and diluted daily maintaining a mid-log growth phase for up to 100 hrs. Cell counts were scored using a Z2 Coulter Counter. After each cell dilution, fresh compound or an equal volume of DMSO (control samples), was supplemented into the cultures. […] Cruzain inhibitors where the highest concentration reflects the upper limit of solubilities of the inhibitors in 1% (v/v) DMSO solutions were evaluated. These inhibitors are likely to bind to proteins in fetal calf serum, and for these reasons, fresh inhibitors were added each time cells were re-fed.
Selected cruzain inhibitors were evaluated in axenic cell cultures of T. b. brucei and T. cruzi. Procyclic trypomastigotes of T. b. brucei (ATCC PRA-381) were grown in the SDM-79 medium at 26° C., and bloodstream forms (ATCC PRA-383) were grown at 37° C. in the HMI-9 medium at 5% C02. T. cruzi (epimastigote forms, strain Y, ATCC 50832GFP) was grown in the ATCC medium (1029 LIT medium). Both forms of T. b. brucei and T. cruzi were grown in media containing 10% fetal bovine serum (FBS) and penicillin/streptomycin (50 U mL^−1). […] Control samples contained equal amounts of DMSO. T. b. brucei and T. cruzi (5 mL in flask cultures) were seeded at ˜3×10^6 cells and diluted daily, maintaining a mid-log growth phase for up to 120 h. […] After each cell dilution, fresh compound or an equal volume of DMSO (control samples) was supplemented into the cultures, while maintaining a constant concentration of each inhibitor. Cell counts were scored using a Z2 Coulter Counter.

[5] = Thiolation of inhibitors with glutathione, LCMS; format: physicochemical; details: 1 mM glutathione, 0.5 mM compound, Tris pH 8.0, 10% DMSO, room temperature
Experimental: Samples were analyzed by HPLC-MS (as described above) by injecting 0.01 mL aliquots onto a Luna […] C18(2) 100 Å, 4.6 mm, 50 mm column (Phenomenex) using the HPLC method described in the chemistry section at 0-6 h time points. […] Integration of the chromatographic peaks of the inhibitors and their GSH adducts at each time point was used to determine the rate of GSH adduct formation.

[6] = tested on: T. cruzi (Ca-I/72) in C2C12 murine cardiomyoblasts; assay: T. cruzi-infected murine cardiomyoblasts (C2C12); format: cell-based, Trypanosoma cruzi; details: C2C12 murine cardiomyoblasts, read-out: EC50 T. cruzi-infected cardiomyoblasts
How it was run: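 Infected-host-cell imaging assay: inhibitor, 3-fold dilutions topping at 10 μM, was added to C2C12 murine cardiomyoblasts infected with 10^3 or 10^4 Ca-I/72 parasites for 2 days at 37° C. DAPI-stained fixed wells were imaged to count parasites and host cells separately, yielding antiparasitic EC50 and cytotoxic CC50.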

human cathepsin S = human cathepsin S (Homo sapiens (Human), UniProt P25774); details: Ref. 32; read-out: apparent IC50 Human Cathepsin S; cited from earlier work
Chain of human cathepsin S (P25774 115-331): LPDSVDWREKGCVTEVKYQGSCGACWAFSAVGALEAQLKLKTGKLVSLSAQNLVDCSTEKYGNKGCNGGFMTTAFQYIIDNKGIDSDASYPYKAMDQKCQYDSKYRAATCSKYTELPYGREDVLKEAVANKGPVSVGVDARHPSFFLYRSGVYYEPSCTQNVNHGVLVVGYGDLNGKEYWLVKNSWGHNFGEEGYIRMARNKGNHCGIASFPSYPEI

[7] = tested on: T. cruzi epimastigotes (strain Y); details: Ndao et al. (2014), read-out: trypanocidal activity EC50; cited from earlier work
human dermal fibroblasts = assay: Human cell toxicity, resazurin viability; format: cell-based
How it was run: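 Primary human dermal fibroblasts, 2400 cells/well, exposed in duplicate to inhibitors at final 0.001-0.1 mM in 1% DMSO (1% DMSO control) for 48 h at 37 °C. Resazurin then added and viability read by fluorescence (544/590 nm) after further 24 h.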

Structure (SMILES): CN1CCN(C(=O)N[C@@H](Cc2ccccc2)C(=O)N[C@H](/C=C/S(=O)(=O)c2ccccc2)CCc2ccccc2)CC1 [Compound K11777, reference compound]
- EC50 [1]: 90 ± 60 nM
- CC50 [2]: > 10000 nM
- EC50 [3]: 2000 nM and 2300 nM and 1700 nM
- T. cruzi axenic culture EC50 [4]: poorly effective
- EC50 ([4]; read-out: T. cruzi axenic culture EC50): ~60000 nM
- Rate of Thiolation, k [5]: 0.00467 ± 0.0067 M⁻¹ s⁻¹
- EC50 ([6]; listed as K777): 38 ± 9 nM
- EC50 [6]: 700 nM
- IC50 (human cathepsin S): 0.6 nM
- EC50 [7]: 10000 to 100000 nM
- EC50 (human dermal fibroblasts): 70000 nM
- toxicity in human dermal fibroblasts, concentration (human dermal fibroblasts; concentration at which toxicity was or was not seen): 70 µM
- CC50 (human dermal fibroblasts; human dermal fibroblasts, read-out: Human Cell Cytotoxicity CC50): 60000 to 100000 nM
